Data from US12209142B2, “SARS-CoV-2 epitope-targeted peptide immunostimulants” (Institute for Systems Biology, priority 2020, dated 2025).
Where “and” joins values, the source holds several entries; their conditions need not be identical. Equal entries are not always repeated. Bridges are numbered along the chain shown (N, C = ends). Where no end group is shown, it is not given here. [ ]: non-standard residue; d: D form. Lys(N3) = [N-]=[N+]=NCCCC[C@H](N)C(=O)O; Pra = C#CC[C@H](N)C(=O)O

Assays:
Format in all cases: cell-based, Klebsiella pneumoniae
[1] = system: K. pneumoniae cells (strain BAA 1705); assay: Gentamicin protection assay: phagocytosis and opsonophagocytic killing (OPK) by macrophages; conditions: 1 h
Protocol: FIGS. 7A and 7B show a gentamicin protection assay that evaluates EPI-driven phagocytosis and opsonophagocytic killing (OPK) of K. pneumoniae cells by murine bone-marrow-derived macrophages. FIG. 7A is a flow diagram depicting the assay used to evaluate EPI-driven opsonophagocytic killing (OPK) of K. pneumoniae cells. Briefly, K. pneumoniae cells (strain BAA 1705) opsonized by EPIs (AR-PCCs) and anti-DNP antibodies were incubated with macrophages for 1 or 24 h. Macrophages were lysed, and the lysate was plated to obtain bacterial colonies that were subsequently counted. FIG. 7B is a plot of colony counts for various samples subjected to the OPK assay. […] All EPIs (AR-PCCs) were used at a 5 μM concentration, measurements were conducted in triplicate, and error bars reflect standard deviations. cy(LLFFA) is SEQ ID NO:11.
It also tested whether DNP-conjugated EPIs could promote the opsonophagocytic killing (OPK) of K. pneumoniae by macrophages. This was tested by using an OPK assay. Briefly, K. pneumoniae cells were treated with EPI and then anti-DNP antibody before being exposed to macrophages for either 6 or 24 hours. During this incubation period, macrophages that recognize K. pneumoniae cells will phagocytose them, and phagocytosed bacteria will remain viable for up to 6 hours, but within 24 hours are rendered inviable by OPK. Thus, macrophages were isolated after 6 and 24 hours of incubation with K. pneumoniae, lysed them, and plated and grew the lysate, which yielded bacterial colonies that reflect the phagocytosis (at 6 hrs) or OPK (at 24 hrs) of bacteria.
Given that cy(LLFFF)-DNP (SEQ ID NO:5) recruits antibodies to K. pneumoniae surfaces, it was expected that K. pneumoniae opsonized in this manner would be more susceptible to phagocytosis by macrophages. AR-PCC-driven phagocytosis and OPK were quantified by a gentamicin protection assay, as depicted in FIG. 7A. For this assay, K. pneumoniae cells (strain BAA 1705) were treated with cy(LLFFF)-DNP (SEQ ID NO:5), opsonized by anti-DNP antibodies, and then incubated with murine bone-marrow-derived macrophages (BMDMs). BMDMs were subsequently exposed to a solution containing gentamicin, to which K. pneumoniae strain BAA 1705 is susceptible, to kill any extracellular bacteria. Phagocytosed bacteria remain viable inside BMDMs for at least 1 h, yet are rendered inviable after 24 h by OPK (FIG. 13). Macrophages harvested at 1 h and 24 h were lysed and plated to generate bacterial colonies, which were enumerated to quantify phagocytosis and OPK.
Opsonophagocytic killing (OPK) assays. Klebsiella pneumoniae BAA1705 was treated with DNP-PCCs followed by incubation with anti-DNP antibody, as described above in the “Cell-Based ELISAs” section. These opsonized bacteria were then used to infect BMDMs at a multiplicity of infection of 50 for 0.5 h at 37° C. Bacteria were then washed by using RPMI 1640 Media and BMDMs were left in cell culture medium containing gentamicin (100 μg/ml). After 1 h and 24 h BMDMs were washed to remove gentamicin and intracellular bacteria were harvested by lysing BMDMs in RPMI media containing 0.2% Triton X 100. Bacterial CFUs were enumerated by plating onto LB agar. Bacterial counts at 1 h indicated the degree of opsonization while those at 24 h served as a measure of microbicidal activity of macrophages. For these measurements, anti-MrkA antibody and K. pneumoniae antiserum were used at dilutions of 5 μg/mL each.

[2] = system: K. pneumoniae cells (strain BAA 2146); assay: Flow cytometry of AR-PCC-driven opsonization by anti-DNP antibodies; conditions: cy(LLFFF)-DNP 1 or 5 μM, cy(HNGPT) control 50 μM, plus fluorescent anti-DNP
[3] = system: K. pneumoniae cells, BAA 1705 and BAA 2146; assay: Whole-cell ELISA of anti-DNP recruitment to bacterial cell surfaces; conditions: AR-PCC plus anti-DNP; cy(LLFFF)-DNP 5 or 10 μM, cy(HNGPT)-DNP 50 and 100 μM
From the text: FIG. 12 is a plot of 450 nm absorbances obtained from a cell-based ELISA assay conducted on two strains of K. pneumoniae cells, BAA 1705 (black) and BAA 2146 (grey), that were either untreated or opsonized by EPIs (AR-PCCs) and/or antibodies. […] This establishes EPI-driven opsonization by cy(LLFFF)-DNP (SEQ ID NO:5). […] This indicates opsonization by cy(LLFFF)-DNP (SEQ ID NO:5) is specific and is driven by the ligand cy(LLFFF) (SEQ ID NO:5), rather than the Lys(DNP) moiety.
The protocol for detecting anti-DNP recruitment to bacterial cell surfaces is as follows. […] After washing, bacteria were incubated with HRP conjugated secondary antibody (Bio-Rad) at a dilution of 1:10,000 for 1 h at 37° C. Unbound antibody was washed off by using PBS-BSA and the cells were then developed by using TMB reagent. […] Anti-MrkA antibody was procured from Biorbyt (orb51318) and used at a concentration of 5 μg/mL, and K. pneumoniae antiserum was obtained from abcam (ab20947) and used at a concentration of 5 μg/mL.

## cy(LLFFF)-DNP: cy(LLFFF) tagged with a DNP-modified lysine residue; lead AR-PCC ([Pra]LLFFF[Lys(N3)]; bridge 1-7; not fully specified (bridges); printed as cy(LLFFF)-DNP; also: tagged with a DNP-modified lysine residue, position not given here)
[1]; AR-PCC 5 μM
  phagocytosis at 1 h, AR-PCC only (no anti-DNP): None of these treatments elicited phagocytosis above basal levels
[1]; AR-PCC 5 μM, murine BMDMs
  colony counts at 1 h, AR-PCC plus anti-DNP antibody: 89,000 CFU and 85,000 CFU
[1]; plus anti-DNP
  level of phagocytosis lower than that induced by K. pneumoniae antiserum and anti-MrkA treatment: about 15%
[2]
  fluorescence of cells (opsonization by anti-DNP): much higher fluorescence
[3]
  450 nm absorbance, anti-DNP recruitment to cells: much larger signal
